The results in this text go back to patent US20160176867A1, “MODIFIED BET-PROTEIN-INHIBITING DIHYDROQUINOXALINONES AND DIHYDROPYRIDOPYRAZINONES” (BAYER PHARMA AKTIENGESELLSCHAFT, priority 2013, published 2016).

Assay [1] concerns the target T1, BRD4 bromo domain 2 [BRD4(2)] (Homo sapiens, UniProt O60885).
T1 construct: N-terminally His6-tagged BRD4(2) (amino acids 357-445); made in house; host or cells: E. coli
Briefly: BRD4/acetylated peptide H4 binding assay (TR-FRET), BRD4 bromo domain 2. As to conditions: inhibition of BRD4(2)/Ac-H4 peptide interaction. The gist of the method:
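IC50 comes from a 4-parameter fit over 0.1 nM–20 μM in duplicate, normalised to DMSO and no-protein controls. TR-FRET (Eu-streptavidin/anti-His-XL665) tracks His-tagged BRD4(2) 357-445 at 100 nM binding Ac-H4 peptide in HEPES pH 7.5 buffer. Incubation was 1 h at 22 °C, then at 4 °C ≥3 h up to overnight.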

The next assay has as its system B16F10 cells. Briefly: Cell proliferation assay (alamarBlue), B16F10. Format: cell-based. Conditions: Mus musculus, B16-F10; B16F10 (melanoma, BRAF wild-type), 96 hours. A digest of the protocol:
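B16F10 cells in DMEM with 10% FCS were exposed to seven concentrations from 1E-5 to 1E-8 M for 96 hours at 37 °C. Viability was read with alamarBlue (ex 530/em 590 nm), and day-0 signal was subtracted. IC50 was derived relative to buffer-treated cells.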

The test system of a further assay is MOLM-13 cells. Briefly: Cell proliferation assay (alamarBlue), MOLM-13. Format: cell-based. Conditions: Homo sapiens; MOLM-13 (acute myeloid leukaemia), 96 hours. The gist of the method: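 Cells in RPMI1640 with 10% FCS, read by alamarBlue fluorescence (ex 530, em 590 nm) after overnight plating and again after 96 h compound exposure at 37° C (1E-5 to 1E-8 M). Baseline-subtracted signal compared with buffer-treated cells to derive IC50.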

A word on the IC50: it is the concentration that gives 50% inhibition. With `CC(C)N1c2nc(Nc3cccc(C(=O)N[C@H]4CC[C@H](N5CCN(CC6CC6)CC5)CC4)c3)ccc2N(C)C(=O)[C@H]1C` [Example 79, N-{trans-4-[4-(cyclo-propylmethyl)piperazin-1-yl]cyclohexyl}-3-{[(3R)-4-isopropyl-1,3-dimethyl-2-oxo-1,2,3,4-tetrahydropyrido[2,3-b]pyrazin-6-yl]amino}benzamide], the IC50 in assay [1] worked out at 116 nM; with B16F10 cells, 478 nM; in the assay with MOLM-13 cells, 287 nM.

For `CC(C)N1c2nc(Nc3cccc(C(=O)N4CCN(CC5CC5)CC4)c3)ccc2N(C)C(=O)[C@H]1C` [Example 88, (3R)-6-[(3-{[4-(cyclo-propylmethyl)piperazin-1-yl]carbonyl}phenyl)amino]-4-isopropyl-1,3-dimethyl-3,4-dihydropyrido[2,3-b]pyrazin-2(1H)-one], the IC50 in assay [1] is 177 nM; in the assay on B16F10 cells it was 1620 nM; in the assay on MOLM-13 cells, 2080 nM.

With `C[C@@H]1C(=O)N(C)c2ccc(Nc3cccc(C(=O)N[C@H]4CC[C@H](N5CCN(CC6CC6)CC5)CC4)c3)nc2N1c1ccc(F)cc1` [Example 93], the IC50 in assay [1] came to 2450 nM; with B16F10 cells, 1180 nM; with MOLM-13 cells, 410 nM.

As for `C[C@@H]1C(=O)N(C)c2ccc(Nc3cccc(S(=O)(=O)N4CC5(CCC5)C4)c3)nc2N1C1CCNCC1` [Example 122, (3R)-6-{[3-(2-Azaspiro[3.3]hept-2-ylsulphonyl)phenyl]amino}-1,3-dimethyl-4-(piperidin-4-yl)-3,4-dihydropyrido[2,3-b]pyrazin-2(1H)-one], the IC50 is 94 nM in assay [1], 1840 nM with B16F10 cells and 396 nM in the assay with MOLM-13 cells.

As for `C[C@@H]1C(=O)N(C)c2ccc(Nc3cccc(S(=O)(=O)N(C)C)c3)nc2N1C1CCNCC1` [Example 123, 3-{[(3R)-1,3-dimethyl-2-oxo-4-(piperidin-4-yl)-1,2,3,4-tetrahydropyrido[2,3-b]pyrazin-6-yl]amino}-N,N-dimethylbenzene-sulphonamide], the results for the IC50 (in assay [1]; with B16F10 cells; with MOLM-13 cells) were 62 nM, 2500 nM and 140 nM, respectively.

As to `C[C@@H]1C(=O)N(C)c2ccc(Nc3cccc(S(=O)(=O)NC4CCN(C)CC4)c3)nc2N1C1CCNCC1` [Example 124, 3-{[(3R)-1,3-dimethyl-2-oxo-4-(piperidin-4-yl)-1,2,3,4-tetrahydropyrido[2,3-b]pyrazin-6-yl]amino}-N-(1-methylpiperidin-4-yl)benzenesulphonamide], the IC50 was 46 nM in assay [1], greater than 20000 nM in the assay with B16F10 cells and greater than 20000 nM in the assay with MOLM-13 cells.

Take `C[C@@H]1C(=O)N(C)c2ccc(Nc3cccc(S(=O)(=O)N4CCN(C)CC4)c3)nc2N1C1CCNCC1` [Example 125, (3R)-1,3-dimethyl-6-({3-[(4-methylpiperazin-1-yl)sulphonyl]phenyl}amino)-4-(piperidin-4-yl)-3,4-dihydropyrido[2,3-b]pyrazin-2(1H)-one]: the IC50 in assay [1] was 44 nM; with B16F10 cells, greater than 10000 nM; in the assay on MOLM-13 cells, 383 nM.

Consider `C[C@@H]1C(=O)N(C)c2ccc(Nc3cccc(S(=O)(=O)N4CCN(CC(F)(F)F)CC4)c3)nc2N1C1CCNCC1` [Example 126, (3R)-1,3-dimethyl-4-(piperidin-4-yl)-6-[(3-{[4-(2,2,2-trifluoroethyl)piperazin-1-yl]sulphonyl}phenyl)amino]-3,4-dihydropyrido[2,3-b]pyrazin-2(1H)-one], for which the half-maximal inhibitory concentration (IC50) amounted to 86 nM in assay [1], 1160 nM in the assay with B16F10 cells and 84 nM with MOLM-13 cells.

As to `C[C@@H]1C(=O)N(C)c2ccc(Nc3cccc(S(=O)(=O)N[C@H]4CC[C@H](N5CCN(CC6CC6)CC5)CC4)c3)nc2N1C1CCNCC1` [Example 127, N-{trans-4-[4-(cyclopropylmethyl)piperazin-1-yl]cyclohexyl}-3-{[(3R)-1,3-dimethyl-2-oxo-4-(piperidin-4-yl)-1,2,3,4-tetrahydropyrido[2,3-b]pyrazin-6-yl]amino}-benzenesulphonamide], the figures for the IC50 (in assay [1]; in the assay on B16F10 cells; in the assay on MOLM-13 cells) were 90 nM, greater than 20000 nM and greater than 10000 nM, respectively.

As for `C[C@@H]1C(=O)N(C)c2ccc(Nc3cccc(S(=O)(=O)N(C)C)c3)cc2N1C1CCNCC1` [Example 129, 3-{[(3R)-1,3-dimethyl-2-oxo-4-(piperidin-4-yl)-1,2,3,4-tetrahydroquinoxalin-6-yl]amino}-N,N-dimethylbenzenesulphon-amide], the IC50 in assay [1] worked out at 97 nM; with B16F10 cells, 2160 nM; in the assay on MOLM-13 cells it was 536 nM.

For `C[C@@H]1C(=O)N(C)c2ccc(Nc3cccc(C(=O)N[C@H]4CC[C@H](N5CCN(CC6CC6)CC5)CC4)c3)nc2N1C1CCNCC1` [Example 131, N-{trans-4-[4-(cyclo-propylmethyl)piperazin-1-yl]cyclohexyl}-3-{[(3R)-1,3-dimethyl-2-oxo-4-(piperidin-4-yl)-1,2,3,4-tetrahydropyrido[2,3-b]pyrazin-6-yl]amino}benzamide], the IC50 was 188 nM in assay [1], greater than 20000 nM in the assay with B16F10 cells and greater than 10000 nM in the assay with MOLM-13 cells.

As to `C[C@@H]1C(=O)N(C)c2ccc(Nc3cccc(C(=O)N(C)C)c3)cc2N1C1CCNCC1` [Example 133, 3-{[(3R)-1,3-dimethyl-2-oxo-4-(piperidin-4-yl)-1,2,3,4-tetrahydroquinoxalin-6-yl]amino}-N,N-dimethylbenzamide], the IC50 was 990 nM in assay [1], greater than 20000 nM in the assay on B16F10 cells and greater than 10000 nM in the assay with MOLM-13 cells.

Regarding `Cc1nnc(-c2cccc(Nc3ccc4c(n3)N(C3CCOCC3)[C@H](C)C(=O)N4C)c2)o1` [Example 134, (3R)-1,3-Dimethyl-6-{[3-(5-methyl-1,3,4-oxadiazol-2-yl)phenyl]amino}-4-(tetrahydro-2H-pyran-4-yl)-3,4-dihydropyrido[2,3-b]pyrazin-2(1H)-one], the values for the IC50 (in assay [1]; in the assay with B16F10 cells; in the assay on MOLM-13 cells) were 191 nM, 768 nM and 546 nM, respectively.
